According to patent publication US9182402B2, “Hepsin inhibitors” (Fred Hutchinson Cancer Research Center, priority 2008, dated 2015):

Columns and labels:
[1] = target: trypsin (Sus scrofa (Pig), UniProt P00761); test: Trypsin activity assay (chromogenic substrate); conditions: read-out: IC50 trypsin; 30 minutes preincubation at room temperature, substrate at Km
Description: (§3) Titration of the chromogenic substrate pryoGlu-Pro-Arg-pNA was performed for each enzyme and the resulting substrate-velocity data fit with nonlinear regression using GraphPad Prism 4 software (GraphPad, La Jolla, Calif.) to calculate Vmax and Km. […] The reactions were then followed using a kinetic microplate reader and the linear rates of increase in absorbance at 405 nm expressed as percent activity (100%×vi/vo). At least three independent experiments were performed for each enzyme. The IC50 was calculated by fitting the data to a four-parameter non-linear regression using GraphPad Prism 4.

[2] = target: hepsin (Mus musculus (Mouse), UniProt O35453); test: Immunoblot of hepsin expression levels in compound treated HEK 293FT cells; conditions: 20 and 50 μM, 24 hours
Description: The membrane was blocked overnight in TBST buffer containing: 5% non-fat milk, 2% normal goat serum in 50 mM Tris-HCl, pH 8.0, 100 mM NaCl, 0.1% Tween-20. The membrane was then incubated in 3% BSA in TBST with polyclonal anti-hepsin antibody (1:1000) for two hours at room temperature, washed 3×5 minutes with TBST and incubated for one hour in 0.1% BSA in TBST containing goat-anti-rabbit-HRP secondary antibody (1:2000), washed 3×5 minutes in TBST and developed with ECL (Pierce Chemicals, Rockford, Ill.). […] Expression levels were quantified by densitometry using ImageQuantTL™ (GE Healthcare Life Sciences, Piscataway, N.J.).
As treatment with chemical compounds may alter hepsin expression level (and thereby impact pericellular proteolytic activity), hepsin levels in drug-treated cells were determined via immunoblotting (FIG. 6B).

[3] = system: LNCaP cells; test: Cell cytotoxicity assay (CellTiter-Glo, ATP-luciferase); conditions: 20 μM, 72 hours, compounds replenished daily
[4] = target: full-length wild-type murine hepsin expressed in HEK 293FT cells (Mus musculus (Mouse), UniProt O35453); test: Hepsin-dependent pericellular serine proteolytic activity assay; format: cell-based; conditions: overnight incubation; for attenuation of hepsin-dependent pericellular proteolytic activity: 50 μM, activity/expression level relative to vehicle; for pericellular proteolytic activity (in words): 20 and 50 μM
Sequence of full-length wild-type murine hepsin expressed in HEK 293FT cells (O35453 other isoform, or with tags, fused parts or gaps): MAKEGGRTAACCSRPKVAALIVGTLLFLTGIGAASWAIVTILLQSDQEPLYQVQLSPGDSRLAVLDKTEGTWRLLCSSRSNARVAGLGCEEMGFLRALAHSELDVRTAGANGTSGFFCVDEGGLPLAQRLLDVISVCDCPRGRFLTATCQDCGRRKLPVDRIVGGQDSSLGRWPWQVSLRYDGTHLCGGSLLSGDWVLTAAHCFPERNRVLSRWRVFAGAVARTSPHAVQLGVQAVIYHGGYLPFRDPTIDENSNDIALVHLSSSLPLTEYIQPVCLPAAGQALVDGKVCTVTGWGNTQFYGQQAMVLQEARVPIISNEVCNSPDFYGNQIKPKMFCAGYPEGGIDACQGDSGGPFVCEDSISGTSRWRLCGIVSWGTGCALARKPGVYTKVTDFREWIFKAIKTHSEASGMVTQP
Description: Loading was verified via immunoblot against β-actin.
G. Pericellular Serine Proteolytic Activity Assay. […] After 3.5 hrs, transfection media was replaced with fresh media containing 20 μM or 50 μM of test compounds or solvent control (0.5% DMSO in media) and cells incubated overnight. Attached cell monolayers were then washed twice with PBS and once with assay buffer (5% CO2 equilibrated phenol-red free DMEM with 1% BSA) to remove residual serum proteases/inhibitors. Cells were then incubated in assay buffer containing 20 or 50 μM compounds for 30 minutes at 37° C. […] Percent inhibition was calculated as residual activity relative to solvent control. Matched samples were used in parallel to determine toxicity of the test compounds to HEK 293FT cells in this system using the CellTiter-Glo™ assay.
D. Inhibition of Hepsin-Dependent Pericellular Proteolytic Activity. To determine whether the identified compounds were able to inhibit cell-based hepsin activity, an assay was devised to measure hepsin-dependent pericellular serine proteolytic activity (FIG. 5A) (Raynaud et al., 1992 J Cell Physiol 151:378; Bauvois et al., 1990 Eur. J. Immunol. 20:459; Bauvois et al., 1992 Eur. J. Immunol. 22:923; Sameni et al., 2000 Neoplasia 2:496; McGowen et al., 2000 Canc. Res. 60:4771). […] Attached cell monolayers were incubated in assay buffer with peptide substrate and the reactions were allowed to proceed at 37° C. […] Activity levels were adjusted by altering hepsin expression levels to within the linear range of detection. A positive linear rate of activity was observed only for wild-type hepsin-expressing cells and was abolished in the presence of the broad spectrum serine protease inhibitor PEFAbloc.

[5] = system: MP-1 mouse prostate epithelial cell line; test: Cell cytotoxicity assay (CellTiter-Glo, ATP-luciferase); conditions: MP-1, 20 μM, 72 hours, compounds replenished daily
[6] = system: HepG2 cells; test: as above; conditions: HepG2, 20 μM, 72 hours, compounds replenished daily
[7] = system: recombinant human hepsin; test: Hepsin activity assay (chromogenic substrate pyroGlu-Pro-Arg-pNA); format: biochemical; conditions: hepsin relative to trypsin and thrombin
Description: (§1) D. Hepsin, Trypsin and Thrombin Activity Assays.
(§2) Purified recombinant hepsin was preincubated with indicated compounds for 30 minutes at room temperature.

[8] = target: recombinant human hepsin (Homo sapiens, UniProt P05981); test: as above; format: biochemical; conditions: 30 minutes preincubation at room temperature, substrate at Km
Sequence of recombinant human hepsin (Homo sapiens, UniProt P05981) (P05981 1-162 limits assumed): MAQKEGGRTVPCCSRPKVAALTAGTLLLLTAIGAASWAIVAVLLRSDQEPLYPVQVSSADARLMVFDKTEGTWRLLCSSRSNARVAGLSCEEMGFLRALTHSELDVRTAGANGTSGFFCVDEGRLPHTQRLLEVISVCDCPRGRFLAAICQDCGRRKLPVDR
Sequence of recombinant human hepsin (Homo sapiens, UniProt P05981) (P05981 163-417 limits assumed): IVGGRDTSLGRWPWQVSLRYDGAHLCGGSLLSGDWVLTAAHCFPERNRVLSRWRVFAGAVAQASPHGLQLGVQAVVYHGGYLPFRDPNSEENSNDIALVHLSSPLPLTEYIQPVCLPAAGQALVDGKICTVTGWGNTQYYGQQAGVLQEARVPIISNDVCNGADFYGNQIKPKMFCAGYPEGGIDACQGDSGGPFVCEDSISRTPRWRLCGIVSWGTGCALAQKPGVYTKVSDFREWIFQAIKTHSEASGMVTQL
Description: as §1, §2

[9] = target: thrombin (Bos taurus (Bovine), UniProt P00735); test: Thrombin activity assay (chromogenic substrate); format: biochemical; conditions: 30 minutes preincubation at room temperature, substrate at Km
Description: as §3

[10] = approximate value; cited from earlier work

Sequence of trypsin (P00761 9-231): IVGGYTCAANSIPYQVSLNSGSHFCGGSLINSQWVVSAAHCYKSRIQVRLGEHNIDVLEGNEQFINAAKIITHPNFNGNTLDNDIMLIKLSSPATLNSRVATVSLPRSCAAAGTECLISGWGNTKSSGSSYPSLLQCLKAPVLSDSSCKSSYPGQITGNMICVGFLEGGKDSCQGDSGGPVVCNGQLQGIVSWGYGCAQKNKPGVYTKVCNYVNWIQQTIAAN

| Compound | IC50 [1] [µM] | hepsin expression levels [2] | cellular toxicity (cell viability) [3] | attenuation of hepsin-dependent pericellular proteolytic activity [4] [%] | attenuation of hepsin-dependent pericellular proteolytic activity ([4]; listed as Meclizine) [%] | pericellular proteolytic activity (in words) [4] | cellular toxicity (cell viability) [5] | cellular toxicity (cell viability) [6] | specificity for hepsin [7] [fold] | IC50 [8] [µM] | IC50 [9] [µM] | logP [10] |
| --- | --- | --- | --- | --- | --- | --- | --- | --- | --- | --- | --- | --- |
| Cc1cccc(CN2CCN(C(c3ccccc3)c3ccc(Cl)cc3)CC2)c1 (stereo not shown) [Compound 13, 1-[(4-chlorophenyl)(phenyl)methyl]-4-(3-methylbenzyl)piperazine, reference compound] | > 20 | without substantially affecting hepsin expression levels | limited or no cytotoxicity | ~25 | 30 | attenuated pericellular proteolytic activity in a dose dependent manner | limited or no cytotoxicity | limited or no cytotoxicity | > 10 | 2.02 ± 0.37 | > 20 | – |
| CC(C)(Sc1cc(C(C)(C)C)c(O)c(C(C)(C)C)c1)Sc1cc(C(C)(C)C)c(O)c(C(C)(C)C)c1 [Compound 14, 4,4′-[propane-2,2-diylbis(sulfanediyl)]bis(2,6-di-tert-butylphenol), reference compound] | 33.5 ± 11.5 | – | limited or no cytotoxicity | – | – | not have shown an ability to reduce pericellular serine protease activity | limited or no cytotoxicity | limited or no cytotoxicity | – | 0.43 ± 0.05 | > 20 | ~10 |
